± gives the expanded uncertainty stated by the source.
Experiment: activity coefficient (dimensionless); of the first substance listed, at infinite dilution; xn = mol fraction of the nth substance listed
Conditions: 101 kPa, Liquid, Chromatography, x1 = 0

Compound | activity coefficient (312.8 K) | activity coefficient (332.85 K) | activity coefficient (354.65 K) | activity coefficient (322.55 K) | activity coefficient (342.75 K) | activity coefficient (362.65 K) | also measured
CCCC=O [butanal] + CCn1cc[n+](C)c1.CS(=O)(=O)[O-] |  |  |  |  |  |  | activity coefficient (312.55 K): 4.87 ± 0.33; activity coefficient (322.45 K): 4.95 ± 0.34; activity coefficient (332.45 K): 3.51 ± 0.24
CCCCCCCCCCCC [dodecane] + CCCCCC[n+]1ccn(C)c1.FC(F)(F)C(F)(F)[P-](F)(F)(F)(C(F)(F)C(F)(F)F)C(F)(F)C(F)(F)F | 39.3 ± 2.7 | 33.1 ± 2.3 | 25.7 ± 1.8 |  |  |  | 
CCC(C)=O [butanone] + CCCCCC[n+]1ccn(C)c1.FC(F)(F)C(F)(F)[P-](F)(F)(F)(C(F)(F)C(F)(F)F)C(F)(F)C(F)(F)F | 0.204 ± 0.029 | 0.195 ± 0.029 | 0.171 ± 0.029 |  |  |  | 
C1CCCCC1 [cyclohexane] + CCCCn1cc[n+](C)c1.O=S(=O)([N-]S(=O)(=O)C(F)(F)C(F)(F)F)C(F)(F)C(F)(F)F |  |  |  | 7 ± 0.48 | 6.12 ± 0.42 | 5.41 ± 0.37 | 
C#CCCCCC [1-heptyne] + CCCCCCCCCCn1cc[n+](CCCCCCCCCC)c1C.O=S(=O)([N-]S(=O)(=O)C(F)(F)F)C(F)(F)F |  |  |  |  |  |  | activity coefficient (323.1 K): 1.06 ± 0.067; activity coefficient (333.15 K): 1.06 ± 0.067; activity coefficient (343.15 K): 1.06 ± 0.067
c1ccccc1 [benzene] + CCCCn1cc[n+](C)c1.O=S(=O)([N-]S(=O)(=O)C(F)(F)C(F)(F)F)C(F)(F)C(F)(F)F |  |  |  | 1.01 ± 0.063 | 1.02 ± 0.064 | 1.03 ± 0.065 | 
C[N+](=O)[O-] [nitromethane] + CCCCn1cc[n+](C)c1.O=S(=O)([N-]S(=O)(=O)C(F)(F)C(F)(F)F)C(F)(F)C(F)(F)F |  |  |  | 0.625 ± 0.043 | 0.682 ± 0.046 | 0.699 ± 0.047 | 
ClCCl [dichloromethane] + CCCCCC[n+]1ccn(C)c1.FC(F)(F)C(F)(F)[P-](F)(F)(F)(C(F)(F)C(F)(F)F)C(F)(F)C(F)(F)F | 0.66 ± 0.045 | 0.699 ± 0.047 | 0.707 ± 0.047 |  |  |  | 
CO [methanol] + CCCCCC[n+]1ccn(C)c1.FC(F)(F)C(F)(F)[P-](F)(F)(F)(C(F)(F)C(F)(F)F)C(F)(F)C(F)(F)F | 1.57 ± 0.1 | 2.01 ± 0.14 | 1.58 ± 0.1 |  |  |  | 
c1ccsc1 [thiophene] + CCn1cc[n+](C)c1.CS(=O)(=O)[O-] |  |  |  |  |  |  | activity coefficient (312.55 K): 1.87 ± 0.13; activity coefficient (322.45 K): 1.91 ± 0.13; activity coefficient (332.45 K): 1.95 ± 0.13
Cc1ccccc1 [toluene] + CCCCCCCCCCn1cc[n+](CCCCCCCCCC)c1C.O=S(=O)([N-]S(=O)(=O)C(F)(F)F)C(F)(F)F |  |  |  |  |  |  | activity coefficient (323.1 K): 0.512 ± 0.038; activity coefficient (333.15 K): 0.52 ± 0.039; activity coefficient (343.15 K): 0.527 ± 0.039
C=CCCCC [hex-1-ene] + CCCCCCCCCCn1cc[n+](CCCCCCCCCC)c1C.O=S(=O)([N-]S(=O)(=O)C(F)(F)F)C(F)(F)F |  |  |  |  |  |  | activity coefficient (323.1 K): 1.39 ± 0.091; activity coefficient (333.15 K): 1.38 ± 0.09; activity coefficient (343.15 K): 1.36 ± 0.089
ClC(Cl)Cl [trichloromethane] + CCCCCC[n+]1ccn(C)c1.FC(F)(F)C(F)(F)[P-](F)(F)(F)(C(F)(F)C(F)(F)F)C(F)(F)C(F)(F)F | 1.09 ± 0.069 | 1.09 ± 0.069 | 1.05 ± 0.066 |  |  |  | 
CCCCCCCC [octane] + CCCCCC[n+]1ccn(C)c1.FC(F)(F)C(F)(F)[P-](F)(F)(F)(C(F)(F)C(F)(F)F)C(F)(F)C(F)(F)F | 12.2 ± 0.83 | 10.5 ± 0.72 | 8.87 ± 0.6 |  |  |  | 
C=O [methanal] + CCCCn1cc[n+](C)c1.O=S(=O)([N-]S(=O)(=O)C(F)(F)C(F)(F)F)C(F)(F)C(F)(F)F |  |  |  | 0.134 ± 0.029 | 0.155 ± 0.029 | 0.164 ± 0.029 | 
CCC[N+](=O)[O-] [1-nitropropane] + CCn1cc[n+](C)c1.CS(=O)(=O)[O-] |  |  |  |  |  |  | activity coefficient (312.55 K): 4.19 ± 0.28; activity coefficient (322.45 K): 2.7 ± 0.18; activity coefficient (332.45 K): 1.73 ± 0.12
C#CCCCC [1-hexyne] + CCCCn1cc[n+](C)c1.O=S(=O)([N-]S(=O)(=O)C(F)(F)C(F)(F)F)C(F)(F)C(F)(F)F |  |  |  | 2.86 ± 0.2 | 2.73 ± 0.19 | 2.64 ± 0.18 | 
CCC(C)CC [3-methylpentane] + CCCCn1cc[n+](C)c1.O=S(=O)([N-]S(=O)(=O)C(F)(F)C(F)(F)F)C(F)(F)C(F)(F)F |  |  |  | 8.23 ± 0.56 | 7.79 ± 0.53 | 7.62 ± 0.52 | 
CCCO [propan-1-ol] + CCCCCC[n+]1ccn(C)c1.FC(F)(F)C(F)(F)[P-](F)(F)(F)(C(F)(F)C(F)(F)F)C(F)(F)C(F)(F)F | 2.47 ± 0.17 | 1.96 ± 0.13 | 1.47 ± 0.096 |  |  |  | 
ClC(Cl)(Cl)Cl [tetrachloromethane] + CCCCn1cc[n+](C)c1.O=S(=O)([N-]S(=O)(=O)C(F)(F)C(F)(F)F)C(F)(F)C(F)(F)F |  |  |  | 2.4 ± 0.16 | 2.35 ± 0.16 | 2.33 ± 0.16 | 
